Consider 29 compounds from ChEMBL document CHEMBL6096664, “Discovery of novel KSP-targeting PROTACs with potent antitumor effects in vitro and in vivo” (Eur J Med Chem, 2025).

The structures appear in SMILES notation.

For experiment [1], the system named is HCT-116. Put plainly: Antiproliferative activity against human HCT-116 cells assessed as inhibition of cell proliferation measured after 72 hrs by CCK8 assay. In kind it is functional, cell-based. The conditions noted are these: HCT-116, 72 h. In general terms: Tetrazolium dyes change colour on reduction, which living cells bring about.
For experiment [2], the system named is HCT-116. Put plainly: PROTAC activity at VHL-L/KSP in human HCT-116 cells assessed as induction of KSP degradation at 500 nM incubated for 48 hrs by Western blot analysis relative to control. Format: cell-based.
Experiment [3] has as its target Protein cereblon/Kinesin-like protein KIF11 (Homo sapiens, UniProt P52732+Q96SW2). Put plainly: PROTAC activity at CRBN/KSP in human HCT-116 cells assessed as induction of KSP degradation at 500 nM incubated for 48 hrs by Western blot analysis relative to control. In kind it is cell-based. (In general: Immunoblotting shows a protein as a band on a membrane.)

Protein cereblon/Kinesin-like protein KIF11, sequence (P52732 whole entry, looked up): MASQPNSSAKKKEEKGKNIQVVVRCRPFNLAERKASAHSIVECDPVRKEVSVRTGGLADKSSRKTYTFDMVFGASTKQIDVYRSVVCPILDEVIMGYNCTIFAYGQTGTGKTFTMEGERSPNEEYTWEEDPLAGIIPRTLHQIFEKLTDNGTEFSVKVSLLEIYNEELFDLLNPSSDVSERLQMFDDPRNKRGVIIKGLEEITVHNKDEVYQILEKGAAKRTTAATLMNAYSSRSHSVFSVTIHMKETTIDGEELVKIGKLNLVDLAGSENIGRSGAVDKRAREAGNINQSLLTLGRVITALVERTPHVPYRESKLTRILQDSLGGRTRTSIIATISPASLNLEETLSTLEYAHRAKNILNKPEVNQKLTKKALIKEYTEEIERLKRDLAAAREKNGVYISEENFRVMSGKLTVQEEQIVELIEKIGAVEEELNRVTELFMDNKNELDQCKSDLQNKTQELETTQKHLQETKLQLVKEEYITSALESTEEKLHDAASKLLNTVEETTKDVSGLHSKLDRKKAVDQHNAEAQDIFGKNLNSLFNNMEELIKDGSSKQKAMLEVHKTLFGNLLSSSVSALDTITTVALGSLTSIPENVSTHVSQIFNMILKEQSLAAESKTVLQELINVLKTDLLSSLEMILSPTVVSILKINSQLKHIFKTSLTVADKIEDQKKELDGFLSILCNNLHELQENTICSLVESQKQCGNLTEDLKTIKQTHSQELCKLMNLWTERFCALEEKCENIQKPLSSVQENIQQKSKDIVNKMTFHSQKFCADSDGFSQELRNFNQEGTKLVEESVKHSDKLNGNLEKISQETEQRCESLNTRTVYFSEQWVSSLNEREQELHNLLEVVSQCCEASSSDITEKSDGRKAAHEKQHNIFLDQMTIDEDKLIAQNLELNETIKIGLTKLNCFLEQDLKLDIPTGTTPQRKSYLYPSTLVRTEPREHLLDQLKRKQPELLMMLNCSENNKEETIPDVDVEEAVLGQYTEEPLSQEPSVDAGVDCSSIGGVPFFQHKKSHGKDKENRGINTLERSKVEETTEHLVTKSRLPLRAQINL
Protein cereblon/Kinesin-like protein KIF11, sequence (Q96SW2 whole entry, looked up): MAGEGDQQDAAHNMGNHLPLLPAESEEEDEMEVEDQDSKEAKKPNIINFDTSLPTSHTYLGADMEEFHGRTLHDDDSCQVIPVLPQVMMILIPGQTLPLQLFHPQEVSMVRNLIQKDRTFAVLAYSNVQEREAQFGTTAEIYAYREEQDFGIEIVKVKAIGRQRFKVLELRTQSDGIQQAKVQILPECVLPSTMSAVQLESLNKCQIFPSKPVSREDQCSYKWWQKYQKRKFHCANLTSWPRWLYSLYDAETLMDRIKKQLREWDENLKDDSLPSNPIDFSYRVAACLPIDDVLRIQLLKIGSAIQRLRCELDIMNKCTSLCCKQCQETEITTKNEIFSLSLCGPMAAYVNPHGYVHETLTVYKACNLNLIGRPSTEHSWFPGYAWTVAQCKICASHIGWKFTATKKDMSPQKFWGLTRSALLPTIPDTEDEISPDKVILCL

What is called IC50 is the concentration that gives 50% inhibition. For the compound `COc1ccc(C2(SC[C@H](N)C(=O)NCCCCCCC(=O)N[C@H](C(=O)N3C[C@H](O)C[C@H]3C(=O)NCc3ccc(-c4scnc4C)cc3)C(C)(C)C)c3ccccc3C=Cc3ccccc32)cc1`, the half-inhibitory concentration (IC50) with HCT-116 [1] was 181 nM. Besides, in the experiment with HCT-116 [2], the Activity came to 25.2%.
With `COc1ccc(C2(SC[C@H](N)C(=O)NCCCCCNC(=O)COc3cccc4c3C(=O)N(C3CCC(=O)NC3=O)C4=O)c3ccccc3C=Cc3ccccc32)cc1` (stereo partly drawn), in the experiment with HCT-116 [1], the concentration for half-maximal inhibition (IC50) was determined as 66.8 nM. For the same compound, the Activity in experiment [3] amounted to 46.6%.
`COc1ccc(C2(SC[C@H](N)C(=O)NCCOCCOCCC(=O)N[C@H](C(=O)N3C[C@H](O)C[C@H]3C(=O)NCc3ccc(-c4scnc4C)cc3)C(C)(C)C)c3ccccc3C=Cc3ccccc32)cc1`: in the experiment on HCT-116 [1], the IC50 was determined as 158 nM. In the experiment with HCT-116 [2], the Activity was 34.5%.
Taken in the same sequence, the figures for `COc1ccc(C2(SC[C@H](N)C(=O)NCCCCCCCCC(=O)N[C@H](C(=O)N3C[C@H](O)C[C@H]3C(=O)NCc3ccc(-c4scnc4C)cc3)C(C)(C)C)c3ccccc3C=Cc3ccccc32)cc1` were 262 nM and 18.3%.
`COc1ccc(C2(SC[C@H](N)C(=O)NCCCCNc3ccc4c(c3)C(=O)N(C3CCC(=O)NC3=O)C4=O)c3ccccc3C=Cc3ccccc32)cc1` (stereo partly drawn): the IC50 with HCT-116 [1] stood at 360 nM. Further, the Activity in experiment [3] came to 10.6%.
With `COc1ccc(C2(SC[C@H](N)C(=O)NCCOCCOCCOCCC(=O)N[C@H](C(=O)N3C[C@H](O)C[C@H]3C(=O)NCc3ccc(-c4scnc4C)cc3)C(C)(C)C)c3ccccc3C=Cc3ccccc32)cc1`, the IC50 with HCT-116 [1] came to 165 nM. Moreover, the Activity in the experiment with HCT-116 [2] was found to be 32.1%.
The matching figures for `COc1ccc(C2(SC[C@H](N)C(=O)NCCOCCC(=O)N[C@H](C(=O)N3C[C@H](O)C[C@H]3C(=O)NCc3ccc(-c4scnc4C)cc3)C(C)(C)C)c3ccccc3C=Cc3ccccc32)cc1`: 110 nM and 42.2%.
Turning to `COc1ccc(C2(SC[C@H](N)C(=O)NCCCCCCNc3cccc4c3C(=O)N(C3CCC(=O)NC3=O)C4=O)c3ccccc3C=Cc3ccccc32)cc1` (stereo partly drawn), in the experiment with HCT-116 [1], the half-inhibitory concentration (IC50) was 93.4 nM. Moreover, the Activity in experiment [3] stood at 42.3%.
The matching figures for `COc1ccc(C2(SC[C@H](N)C(=O)NCCOCCNc3ccc4c(c3)C(=O)N(C3CCC(=O)NC3=O)C4=O)c3ccccc3C=Cc3ccccc32)cc1` (stereo partly drawn): 203 nM and 25.7%.
The matching figures for `COc1ccc(C2(SC[C@H](N)C(=O)NCCCCNc3cccc4c3C(=O)N(C3CCC(=O)NC3=O)C4=O)c3ccccc3C=Cc3ccccc32)cc1` (stereo partly drawn): 247 nM and 11.2%.
As for `COc1ccc(C2(SC[C@H](N)C(=O)NCCOCCOCCOCCNc3ccc4c(c3)C(=O)N(C3CCC(=O)NC3=O)C4=O)c3ccccc3C=Cc3ccccc32)cc1` (stereo partly drawn), the IC50 with HCT-116 [1] was found to be 95.4 nM. Also, the Activity in experiment [3] is 40.6%.
The matching figures for `COc1ccc(C2(SC[C@H](N)C(=O)NCCOCCOCCNC(=O)COc3cccc4c3C(=O)N(C3CCC(=O)NC3=O)C4=O)c3ccccc3C=Cc3ccccc32)cc1` (stereo partly drawn): 42.2 nM and 53.2%.
Take `COc1ccc(C2(SC[C@H](N)C(=O)NCCNC(=O)COc3cccc4c3C(=O)N(C3CCC(=O)NC3=O)C4=O)c3ccccc3C=Cc3ccccc32)cc1` (stereo partly drawn): the concentration for half-maximal inhibition (IC50) with HCT-116 [1] amounted to 313 nM. Also, the Activity in experiment [3] amounted to 18.5%.
As to `COc1ccc(C2(SC[C@H](N)C(=O)NCCCCNC(=O)COc3cccc4c3C(=O)N(C3CCC(=O)NC3=O)C4=O)c3ccccc3C=Cc3ccccc32)cc1` (stereo partly drawn), the IC50 with HCT-116 [1] is 83.7 nM. Also, in experiment [3], the Activity came out at 43.6%.
Taken in the same sequence, the figures for `COc1ccc(C2(SC[C@H](N)C(=O)NCCCCCCNc3ccc4c(c3)C(=O)N(C3CCC(=O)NC3=O)C4=O)c3ccccc3C=Cc3ccccc32)cc1` (stereo partly drawn) were 145 nM and 35.6%.
As for `COc1ccc(C2(SC[C@H](N)C(=O)NCCOCCOCCNc3cccc4c3C(=O)N(C3CCC(=O)NC3=O)C4=O)c3ccccc3C=Cc3ccccc32)cc1` (stereo partly drawn), the IC50 with HCT-116 [1] amounted to 184 nM. Also, the Activity in experiment [3] was 29.1%.
The matching figures for `COc1ccc(C2(SC[C@H](N)C(=O)NCCOCCOCCNc3ccc4c(c3)C(=O)N(C3CCC(=O)NC3=O)C4=O)c3ccccc3C=Cc3ccccc32)cc1` (stereo partly drawn): 235 nM and 24.1%.
Taken in the same sequence, the figures for `COc1ccc(C2(SC[C@H](N)C(=O)NCCCCCCCCCCNc3cccc4c3C(=O)N(C3CCC(=O)NC3=O)C4=O)c3ccccc3C=Cc3ccccc32)cc1` (stereo partly drawn) were 42.3 nM and 60.1%.
Taken in the same sequence, the figures for `COc1ccc(C2(SC[C@H](N)C(=O)NCCOCCOCCOCCNC(=O)COc3cccc4c3C(=O)N(C3CCC(=O)NC3=O)C4=O)c3ccccc3C=Cc3ccccc32)cc1` (stereo partly drawn) were 206 nM and 28.3%.
In the case of `COc1ccc(C2(SC[C@H](N)C(=O)NCCCCCCCCNc3ccc4c(c3)C(=O)N(C3CCC(=O)NC3=O)C4=O)c3ccccc3C=Cc3ccccc32)cc1` (stereo partly drawn), the IC50 in the experiment on HCT-116 [1] came out at 53.8 nM. For the same compound, the Activity in experiment [3] turned out to be 54.3%.
Take `COc1ccc(C2(SC[C@H](N)C(=O)NCCOCCOCCOCCNc3cccc4c3C(=O)N(C3CCC(=O)NC3=O)C4=O)c3ccccc3C=Cc3ccccc32)cc1` (stereo partly drawn): the IC50 with HCT-116 [1] is 81.3 nM. The Activity in experiment [3] worked out at 43.5%.
Take `COc1ccc(C2(SC[C@H](N)C(=O)NCCOCCNc3cccc4c3C(=O)N(C3CCC(=O)NC3=O)C4=O)c3ccccc3C=Cc3ccccc32)cc1` (stereo partly drawn): the IC50 with HCT-116 [1] turned out to be 366 nM. The Activity in experiment [3] came to 12.8%.
For the compound `COc1ccc(C2(SC[C@H](N)C(=O)NCCCCCCCCCCNC(=O)COc3cccc4c3C(=O)N(C3CCC(=O)NC3=O)C4=O)c3ccccc3C=Cc3ccccc32)cc1` (stereo partly drawn), in the experiment on HCT-116 [1], the IC50 amounted to 31.6 nM. Moreover, the Activity in experiment [3] is 68.3%.
As for `COc1ccc(C2(SC[C@H](N)C(=O)NCCCCCCNC(=O)COc3cccc4c3C(=O)N(C3CCC(=O)NC3=O)C4=O)c3ccccc3C=Cc3ccccc32)cc1` (stereo partly drawn), the IC50 in the experiment on HCT-116 [1] came out at 52.9 nM. Besides, the Activity in experiment [3] turned out to be 52.5%.
Taken in the same sequence, the figures for `COc1ccc(C2(SC[C@H](N)C(=O)NCCCCCCCCCCNc3ccc4c(c3)C(=O)N(C3CCC(=O)NC3=O)C4=O)c3ccccc3C=Cc3ccccc32)cc1` (stereo partly drawn) were 51.3 nM and 53.9%.
As to `COc1ccc(C2(SC[C@H](N)C(=O)NCCCCC(=O)N[C@H](C(=O)N3C[C@H](O)C[C@H]3C(=O)NCc3ccc(-c4scnc4C)cc3)C(C)(C)C)c3ccccc3C=Cc3ccccc32)cc1`, the IC50 in the experiment with HCT-116 [1] was determined as 130 nM. Also, the Activity in the experiment with HCT-116 [2] was determined as 38.3%.
As for `COc1ccc(C2(SC[C@H](N)C(=O)NCCOCCNC(=O)COc3cccc4c3C(=O)N(C3CCC(=O)NC3=O)C4=O)c3ccccc3C=Cc3ccccc32)cc1` (stereo partly drawn), the IC50 with HCT-116 [1] stood at 37.4 nM. For the same compound, the Activity in experiment [3] amounted to 60.1%.
Turning to `COc1ccc(C2(SC[C@H](N)C(=O)NCCCCCCCCNc3cccc4c3C(=O)N(C3CCC(=O)NC3=O)C4=O)c3ccccc3C=Cc3ccccc32)cc1` (stereo partly drawn), in the experiment on HCT-116 [1], the IC50 was 40.8 nM. Further, the Activity in experiment [3] was 61.5%.
With `COc1ccc(C2(SC[C@H](N)C(=O)NCCCNC(=O)COc3cccc4c3C(=O)N(C3CCC(=O)NC3=O)C4=O)c3ccccc3C=Cc3ccccc32)cc1` (stereo partly drawn), the IC50 with HCT-116 [1] was found to be 96.9 nM. The Activity in experiment [3] is 42.1%.
